pIC50: −log10 of the molar value.
Assays:
[1] = target: T1, Acetylcholinesterase (Rattus norvegicus, UniProt P37136)
T1 sequence (P37136 whole entry): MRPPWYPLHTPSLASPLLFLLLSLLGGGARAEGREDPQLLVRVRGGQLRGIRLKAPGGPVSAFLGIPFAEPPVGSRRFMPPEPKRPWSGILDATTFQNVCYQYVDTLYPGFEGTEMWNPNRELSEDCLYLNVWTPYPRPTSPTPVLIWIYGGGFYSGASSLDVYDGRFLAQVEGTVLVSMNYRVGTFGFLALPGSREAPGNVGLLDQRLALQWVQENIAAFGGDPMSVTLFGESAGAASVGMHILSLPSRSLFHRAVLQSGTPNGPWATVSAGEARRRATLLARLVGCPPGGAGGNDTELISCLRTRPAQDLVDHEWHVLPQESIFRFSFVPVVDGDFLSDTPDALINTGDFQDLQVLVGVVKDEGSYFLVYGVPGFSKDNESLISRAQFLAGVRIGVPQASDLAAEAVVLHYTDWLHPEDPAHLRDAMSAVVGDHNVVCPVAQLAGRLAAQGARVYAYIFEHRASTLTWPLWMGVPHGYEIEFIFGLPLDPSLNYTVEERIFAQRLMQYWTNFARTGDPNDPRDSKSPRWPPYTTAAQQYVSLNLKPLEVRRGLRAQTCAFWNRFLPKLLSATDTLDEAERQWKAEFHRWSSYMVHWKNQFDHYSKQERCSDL
Description: Inhibition of rat cortex AChE using acetylthiocholine iodide as substrate incubated for 20 mins by DTNB-reagent based Ellman's method

[2] = target: T2, cGMP-specific 3',5'-cyclic phosphodiesterase (Homo sapiens, UniProt O76074)
Description: Inhibition of PDE5A1 (unknown origin) using FAM-cGMP as substrate incubated for 60 mins by IMAP-fluorescence polarization assay

[3] = target: T3, 3',5'-cyclic-AMP phosphodiesterase 4B (Homo sapiens, UniProt Q07343)
Description: Displacement of [3H]-cAMP from full-length recombinant human PDE4B1 by fluorescence polarisation assay

[4] = target: 3',5'-cyclic-AMP phosphodiesterase 4D (Homo sapiens, UniProt Q08499)
Description: Displacement of [3H]-cAMP from full-length recombinant human PDE4D7 by fluorescence polarisation assay

[5] = target: Phosphodiesterase 4 (Homo sapiens, UniProt P27815+Q08499+Q07343+Q08493); type: protein assay
Description: Inhibition of PDE4 (unknown origin)

[6] = target: Dual specificity calcium/calmodulin-dependent 3',5'-cyclic nucleotide phosphodiesterase 1B (Homo sapiens, UniProt Q01064)
Description: Inhibition of PDE1B (unknown origin)

[7] = target: T4, cAMP and cAMP-inhibited cGMP 3',5'-cyclic phosphodiesterase 10A (Homo sapiens, UniProt Q9Y233)
[8] = target: T2, cGMP-specific 3',5'-cyclic phosphodiesterase; remark: listed apart in the source
Description: Inhibition of human recombinant PDE5A using (Fl)-cAMP and TAMRA-cGMP as substrate incubated for 60 mins by IMAP-fluorescence polarization assay

[9] = target: T4, cAMP and cAMP-inhibited cGMP 3',5'-cyclic phosphodiesterase 10A; remark: listed apart in the source
Description: Inhibition of PDE10A (unknown origin)

[10] = target: T3, 3',5'-cyclic-AMP phosphodiesterase 4B; remark: listed apart in the source
Description: Inhibition of human recombinant PDE4B1 using FAM-cAMP as substrate incubated for 20 mins

[11] = target: High affinity cAMP-specific and IBMX-insensitive 3',5'-cyclic phosphodiesterase 8A (Homo sapiens, UniProt O60658); assay: biochemical; type: cell-based, Sf9
Description: Inhibition of human recombinant PDE8A expressed in baculovirus infected Sf9 insect cells

[12] = target: cGMP-dependent 3',5'-cyclic phosphodiesterase (Homo sapiens, UniProt O00408)
[13] = target: High affinity cGMP-specific 3',5'-cyclic phosphodiesterase 9A (Homo sapiens, UniProt O76083)
Chain of High affinity cGMP-specific 3',5'-cyclic phosphodiesterase 9A (O76083 whole entry): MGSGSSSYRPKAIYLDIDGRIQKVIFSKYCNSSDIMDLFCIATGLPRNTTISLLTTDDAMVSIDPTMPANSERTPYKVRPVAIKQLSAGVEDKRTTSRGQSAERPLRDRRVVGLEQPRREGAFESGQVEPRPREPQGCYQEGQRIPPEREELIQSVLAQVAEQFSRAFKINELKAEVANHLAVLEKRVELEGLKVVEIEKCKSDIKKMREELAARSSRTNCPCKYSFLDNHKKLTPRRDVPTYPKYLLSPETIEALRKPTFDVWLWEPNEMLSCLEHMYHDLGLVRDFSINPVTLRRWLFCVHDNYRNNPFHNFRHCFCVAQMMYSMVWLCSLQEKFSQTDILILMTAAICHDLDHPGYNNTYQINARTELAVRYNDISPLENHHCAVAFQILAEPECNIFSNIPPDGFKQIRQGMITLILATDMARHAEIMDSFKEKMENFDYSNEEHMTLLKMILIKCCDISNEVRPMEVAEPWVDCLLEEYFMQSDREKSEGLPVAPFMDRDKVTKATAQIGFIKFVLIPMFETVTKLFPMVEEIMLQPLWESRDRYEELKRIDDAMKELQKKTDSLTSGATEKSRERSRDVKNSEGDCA
Description: Inhibition of PDE9A (unknown origin)

T3 sequence (Q07343 whole entry): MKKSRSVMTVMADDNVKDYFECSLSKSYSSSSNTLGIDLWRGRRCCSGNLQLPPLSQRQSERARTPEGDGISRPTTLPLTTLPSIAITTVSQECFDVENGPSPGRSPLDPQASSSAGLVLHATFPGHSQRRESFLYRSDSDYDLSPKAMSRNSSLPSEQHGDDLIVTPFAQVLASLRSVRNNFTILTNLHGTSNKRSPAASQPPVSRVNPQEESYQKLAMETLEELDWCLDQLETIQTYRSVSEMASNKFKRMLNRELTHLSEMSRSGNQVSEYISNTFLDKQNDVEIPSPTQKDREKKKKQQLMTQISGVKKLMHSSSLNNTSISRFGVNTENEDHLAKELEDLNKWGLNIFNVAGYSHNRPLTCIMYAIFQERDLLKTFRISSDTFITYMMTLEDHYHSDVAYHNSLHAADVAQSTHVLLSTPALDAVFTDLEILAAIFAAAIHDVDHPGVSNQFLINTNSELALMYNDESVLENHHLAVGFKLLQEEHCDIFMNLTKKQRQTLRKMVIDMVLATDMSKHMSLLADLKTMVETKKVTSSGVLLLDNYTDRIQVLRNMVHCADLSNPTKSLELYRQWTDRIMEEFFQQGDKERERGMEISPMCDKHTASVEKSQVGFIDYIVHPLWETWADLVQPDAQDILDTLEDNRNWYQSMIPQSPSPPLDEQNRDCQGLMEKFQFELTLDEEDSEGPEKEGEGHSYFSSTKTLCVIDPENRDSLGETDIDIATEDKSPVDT
T4 sequence (Q9Y233 whole entry): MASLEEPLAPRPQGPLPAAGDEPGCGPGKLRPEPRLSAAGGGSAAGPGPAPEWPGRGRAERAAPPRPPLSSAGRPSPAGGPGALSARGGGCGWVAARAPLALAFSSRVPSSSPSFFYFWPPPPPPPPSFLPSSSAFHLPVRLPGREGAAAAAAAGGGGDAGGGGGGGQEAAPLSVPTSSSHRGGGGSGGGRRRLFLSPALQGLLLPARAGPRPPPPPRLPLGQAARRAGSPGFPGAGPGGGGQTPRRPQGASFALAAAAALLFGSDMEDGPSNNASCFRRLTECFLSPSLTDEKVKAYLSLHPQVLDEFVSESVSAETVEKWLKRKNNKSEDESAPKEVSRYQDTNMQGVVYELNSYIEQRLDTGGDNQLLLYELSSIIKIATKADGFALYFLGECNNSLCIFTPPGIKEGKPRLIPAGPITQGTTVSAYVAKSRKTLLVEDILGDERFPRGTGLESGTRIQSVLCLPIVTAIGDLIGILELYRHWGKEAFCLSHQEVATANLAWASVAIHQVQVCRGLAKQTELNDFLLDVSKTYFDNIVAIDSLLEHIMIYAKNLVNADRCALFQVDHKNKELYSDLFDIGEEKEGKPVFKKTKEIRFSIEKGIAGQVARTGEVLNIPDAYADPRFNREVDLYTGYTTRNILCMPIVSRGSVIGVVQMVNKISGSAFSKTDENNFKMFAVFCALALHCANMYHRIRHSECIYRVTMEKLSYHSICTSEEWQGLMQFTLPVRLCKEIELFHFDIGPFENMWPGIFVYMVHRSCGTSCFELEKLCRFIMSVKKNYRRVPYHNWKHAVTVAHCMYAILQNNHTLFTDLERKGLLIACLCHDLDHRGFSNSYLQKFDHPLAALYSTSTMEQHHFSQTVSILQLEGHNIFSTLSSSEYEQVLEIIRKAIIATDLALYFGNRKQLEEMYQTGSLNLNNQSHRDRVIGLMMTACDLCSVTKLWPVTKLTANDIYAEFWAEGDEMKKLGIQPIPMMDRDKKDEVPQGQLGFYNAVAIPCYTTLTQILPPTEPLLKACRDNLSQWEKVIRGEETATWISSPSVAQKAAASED
Chain of Dual specificity calcium/calmodulin-dependent 3',5'-cyclic nucleotide phosphodiesterase 1B (Q01064 whole entry): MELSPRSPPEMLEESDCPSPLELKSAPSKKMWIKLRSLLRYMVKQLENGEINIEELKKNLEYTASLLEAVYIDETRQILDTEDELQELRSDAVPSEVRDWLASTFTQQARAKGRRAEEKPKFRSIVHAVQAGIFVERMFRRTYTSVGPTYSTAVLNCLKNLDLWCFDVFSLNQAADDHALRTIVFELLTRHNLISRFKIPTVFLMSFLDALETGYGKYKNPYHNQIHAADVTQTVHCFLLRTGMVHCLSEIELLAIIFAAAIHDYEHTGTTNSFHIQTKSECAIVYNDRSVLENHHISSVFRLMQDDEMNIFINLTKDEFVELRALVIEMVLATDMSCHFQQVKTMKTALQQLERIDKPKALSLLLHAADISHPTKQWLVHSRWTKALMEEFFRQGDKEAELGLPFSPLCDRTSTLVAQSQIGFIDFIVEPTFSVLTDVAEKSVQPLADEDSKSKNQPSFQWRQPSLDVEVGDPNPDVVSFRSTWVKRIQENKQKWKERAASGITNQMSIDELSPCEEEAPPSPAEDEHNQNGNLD
Chain of 3',5'-cyclic-AMP phosphodiesterase 4D (Q08499 whole entry): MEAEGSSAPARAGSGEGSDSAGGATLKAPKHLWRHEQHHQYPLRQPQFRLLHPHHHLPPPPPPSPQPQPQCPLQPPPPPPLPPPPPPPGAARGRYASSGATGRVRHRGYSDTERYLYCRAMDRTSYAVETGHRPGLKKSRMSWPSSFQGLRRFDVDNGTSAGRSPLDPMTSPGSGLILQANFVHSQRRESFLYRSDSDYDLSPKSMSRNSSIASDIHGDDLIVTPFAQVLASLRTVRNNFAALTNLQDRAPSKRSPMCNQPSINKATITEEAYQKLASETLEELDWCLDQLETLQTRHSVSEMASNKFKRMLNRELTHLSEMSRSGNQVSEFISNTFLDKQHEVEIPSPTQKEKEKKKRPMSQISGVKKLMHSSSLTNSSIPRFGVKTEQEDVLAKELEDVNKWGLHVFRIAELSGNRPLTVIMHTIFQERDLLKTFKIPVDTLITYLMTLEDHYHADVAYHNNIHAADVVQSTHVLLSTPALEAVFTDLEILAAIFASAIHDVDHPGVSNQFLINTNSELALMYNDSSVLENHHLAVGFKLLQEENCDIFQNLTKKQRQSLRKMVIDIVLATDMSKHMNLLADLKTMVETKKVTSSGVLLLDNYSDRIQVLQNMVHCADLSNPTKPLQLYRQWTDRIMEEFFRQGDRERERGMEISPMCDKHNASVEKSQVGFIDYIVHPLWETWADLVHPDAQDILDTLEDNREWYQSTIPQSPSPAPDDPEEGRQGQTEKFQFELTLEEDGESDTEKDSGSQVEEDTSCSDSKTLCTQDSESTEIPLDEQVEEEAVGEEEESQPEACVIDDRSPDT
Chain of cGMP-dependent 3',5'-cyclic phosphodiesterase (O00408 whole entry): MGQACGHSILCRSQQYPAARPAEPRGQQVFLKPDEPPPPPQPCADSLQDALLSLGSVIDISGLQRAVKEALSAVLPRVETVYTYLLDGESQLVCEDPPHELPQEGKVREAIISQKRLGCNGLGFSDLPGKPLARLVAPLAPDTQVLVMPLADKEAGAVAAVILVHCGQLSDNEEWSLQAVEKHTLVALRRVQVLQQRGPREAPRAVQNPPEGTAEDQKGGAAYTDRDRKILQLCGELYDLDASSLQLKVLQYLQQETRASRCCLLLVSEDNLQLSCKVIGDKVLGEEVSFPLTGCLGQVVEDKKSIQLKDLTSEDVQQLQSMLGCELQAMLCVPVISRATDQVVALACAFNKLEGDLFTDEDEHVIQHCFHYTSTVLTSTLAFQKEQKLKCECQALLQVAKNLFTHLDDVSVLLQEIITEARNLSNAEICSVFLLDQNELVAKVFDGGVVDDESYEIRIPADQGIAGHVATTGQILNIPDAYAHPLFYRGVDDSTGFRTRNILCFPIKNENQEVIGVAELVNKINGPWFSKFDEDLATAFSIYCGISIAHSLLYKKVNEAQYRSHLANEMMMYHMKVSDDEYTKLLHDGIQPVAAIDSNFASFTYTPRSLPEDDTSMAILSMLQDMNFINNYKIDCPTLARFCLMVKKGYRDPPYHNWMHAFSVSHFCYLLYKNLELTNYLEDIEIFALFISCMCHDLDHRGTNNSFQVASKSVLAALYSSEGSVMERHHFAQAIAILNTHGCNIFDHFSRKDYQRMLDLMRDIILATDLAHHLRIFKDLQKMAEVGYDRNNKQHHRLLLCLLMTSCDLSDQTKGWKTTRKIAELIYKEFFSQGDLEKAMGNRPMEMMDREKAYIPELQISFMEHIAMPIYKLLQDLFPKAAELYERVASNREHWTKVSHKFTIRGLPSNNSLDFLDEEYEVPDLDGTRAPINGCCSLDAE

Work on `COc1ccc([C@@H]2c3[nH]c4ccccc4c3C[C@H]3C(=O)N(CCC4CCN(Cc5ccccc5)CC4)CC(=O)N23)cc1` yielded a pIC50 [1] of 5.49 and a pIC50 [2] of 7.82.

Work on `N#CC(c1ccc(OC(F)F)c(OC2CCCC2)c1)c1ccc(Cl)nn1` (centres undefined) yielded a pIC50 [3] of 6.54 and a pIC50 [4] of 6.51.

`CC(=O)OCCOc1nc(Oc2ccc3c(c2)COB3O)ccc1C#N` gave an IC50 [5] of 0.7 nM.

`COc1cc2ncnc(C(C)c3cccc(Cl)c3)c2cc1OC` (centres undefined) gave a pIC50 [6] of 6.89.

In the case of `CCCCOc1ccc(F)c(-c2nc(C)c3nnc4ccc(OCCF)nc4n23)c1`, the pIC50 [7] was < 6.00.

`CCN1CC(=O)N2[C@H](c3ccc(Cl)cc3)c3[nH]c4ccccc4c3C[C@@H]2C1=O` showed a pIC50 [8] of 8.52.

`O=C1[C@H]2Cc3c([nH]c4ccccc34)[C@@H](c3ccc4c(c3)OCO4)N2C(=O)CN1CCC1CCN(Cc2ccccc2)CC1` was tested, and the pIC50 [1] was 6.82 and the pIC50 [2] was 7.44.

`O=C1[C@@H]2Cc3c([nH]c4ccccc34)[C@@H](c3ccc4c(c3)OCO4)N2C(=O)CN1CCC1CCN(Cc2ccccc2)CC1` was tested, and the pIC50 [1] was 5.82 and the pIC50 [2] was 7.49.

`COc1cc2ncnc(N3CC[C@@H](Oc4cnc5ccccc5n4)C3)c2cc1OC` was tested, and the pIC50 [9] was 8.22.

`COc1ccc([C@H]2CCN3C(=O)NC[C@H]23)cc1OC1CCCC1` showed a pIC50 [10] of 7.57.

Work on `OCCN(CCO)c1nc(N2CCCCC2)c2nc(N(CCO)CCO)nc(N3CCCCC3)c2n1` [DIPYRIDAMOLE] yielded a pIC50 [11] of 5.40.

Work on `Cc1ncn(-c2nc3c(C(=O)N[C@@H](c4ccc(OC(F)(F)F)cc4)C(C)(C)O)cnn3cc2C)n1` yielded a pIC50 [12] of 9.29.

`O=C1NC[C@@H]2[C@@H](c3ccc(OC(F)F)c(OCC4CC4)c3)CCN12` gave a pIC50 [10] of 7.74.

`C[C@@H](Nc1nc2c(cnn2C2CCCC2)c(=O)n1Cc1ccccc1)c1ccc(Cl)cc1` was tested, and the pIC50 [13] was < 5.00.

`CCCN(CCC)c1ncnc2c(OC)c(OC)c(OC)cc12` was tested, and the pIC50 [6] was 6.66.

Reference: ChEMBL document CHEMBL5226285, “The long and winding road of designing phosphodiesterase inhibitors for the treatment of heart failure” (Eur J Med Chem, 2021)
